Four compounds from US3954793A, “1-(2-Propynyl)-1 H-indazole compounds” (priority 1973, dated 1976) can be followed below.

Several values for one entry are separate records, joined by “and”; a condition that tells them apart may be missing. Identical values can stand only once.

The test system of data set [1] is polyvalent resistant (CH strain) houseflies. As to the kind of experiment: whole plant or invertebrate. The format is in vivo. Here is the method:
The effect of O-(2-propynyl) oximes with Dimetilan and with GS 13798 was obtained from tests on polyvalent resistant (CH strain) houseflies that had been chilled and to the dorsal region of which was applied an acetone solution of synergist and insecticide at a ratio of two to one. Duplicate tests were performed using 10 four to five-day old female houseflies per test. After dosage, the flies were put in a plastic petri dish with cotton soaked in a sugar-water solution. These doses of insecticide used without synergist caused 10-40% mortality.
In Table IX, and in the tables following it, the doses of topically applied insecticides and of synergists unless otherwise noted are expressed as micrograms per fly (μg/fly).
The effect of compounds II-C, II-D and II-E with Dimetilan and GS 13798 was determined, following the procedure of Example 5, from tests on polyvalent resistant (CH strain) houseflies. These doses of insecticide used without synergist caused 10-40% mortality.
The synergistic effect with GS 13005 of compounds I-A, I-B, I-D, I-E, I-F, I-G and I-I was determined from topical application tests to IN/WHO strain, Rutgers A strain and polyvalent CH strain houseflies using the procedures of Example 5. The percent kills of the IN/WHO strain flies after 24 hours are shown in Table XXVIII; of the Rutgers A strain, in Table XXIX; and of the polyvalent CH strain, in Table XXX. The doses of insecticide alone to the CH strain files caused 10-40% mortality.
The synergistic effect with Diazinon and GS 13005 of various of the benzyl 2-propynyl ethers identified in Tables II and IIa was determined by topical application tests on IN/WHO strain, and Rutgers A strain and polyvalent, resistant, CH strain houseflies using the procedures of Example 5. The percent kills after 24 hours of IN/WHO strain flies are shown in Table XXXI; of Rutgers A strain flies, in Table XXXII; and of CH strain flies, in Table XXXIII. The doses of insecticide alone to the CH strain flies caused 10-40% mortality.
The synergistic effect with pyrethrum of various synergist compounds was determined by topical application tests on polyvalent, resistant CH strain houseflies following the procedure of Example 5. Application of the insecticide alone caused 10-40% mortality.

Data set [2] has as its system Swiss albino, white male mice. Kind of data set: acute toxicity and synergism of acute toxicity in mice. The class given is in vivo. Conditions: for Lethality, Dimetilan alone (number of mice dead): eight mice. In outline: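 Male Swiss albino mice (23 to 27 g, five to six weeks), eight per dose, dosed intraperitoneally in corn oil: dimetilan alone at 4 to 32 mg per kg, synergists alone at 1000 mg/kg with deaths counted at 72 hours. For synergism, synergist given 1 hour before insecticide, lethality observed for at least 6 hours.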

Data set [3] has as its system Wilson strain house flies. The format is in vivo, Wilson strain (susceptible). Here is the method:
The required solutions of the insecticide and of the synergist compound were prepared in acetone at a concentration of 1 milligram per milliliter. One-pint wide mouth glass jars were coated with the appropriate insecticide-synergist combination by rolling the jars containing aliquots of the appropriate solutions diluted to three milliliters with acetone to deposit, by evaporation, a film of the test materials. The flies were transferred under carbon dioxide anesthesia and held in the jar at room temperature. Perforated aluminum foil was used to cover the jars and to hold cotton saturated with 10% sugar solution. Counts were made at intervals, but the recorded mortality was based on 24-hour kill, rather than knockdown. All prostrate non-moving flies were considered dead. A determination was then made of the contact synergistic ratio [SR], which is the ratio of the LC50 of insecticide alone to the LC50 of the insecticide when applied together with the synergist. The LC50 of the insecticide was estimated from a log-probit plot of percent kill versus dosage. […] The LC50 of the combination of insecticide and synergist was determined at a synergist to insecticide parts by weight ratio of five to one.

Data set [4] concerns IN/WHO strain house flies. Kind of data set: topical application, percent kill after 24 hours, susceptible IN/WHO strain. The class given is in vivo, female). The essentials:
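Insecticide plus synergist in acetone, 1.0 μl applied to the thorax of CO2-anesthetized 3-to-5-day-old female IN/WHO house flies, doses in μg/fly. Flies held 10 per dish, 3-5 dishes per treatment, with skim milk. Percent mortality scored after 24 h.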

For data set [5], the system named is German male cockroaches (Blatella Germanicus). Kind of data set: topical application to thorax, 24 hour mortality of German male cockroaches. The format is in vivo. Conditions: cockroaches. The method, then: The synergistic effect with mobam of synergist compounds I-B, II-H, II-K and IV-C is further illustrated by the 24 hour mortality data of German male cockroaches (Blatella Germanicus) shown in Table XXXX. The synergists and insecticide were diluted in acetone and applied in small droplets to the thorax of the insect. These doses of synergist alone gave zero percent insect mortality.
The synergistic effect with GS 13005 of compounds I-B, II-H, II-K, II-P, II-Q, II-R and IV-C is illustrated by the 24 hour mortality of German male cockroaches shown in Table XXXXI. These doses of synergist alone caused zero percent insect mortality.

A further data set concerns houseflies. Kind of data set: topical application with Diazinon, Table XXVII (strain not given). The format is in vivo.
The test system of data set [6] is Rutgers A strain house flies. Kind of data set: topical application, percent kill after 24 hours, resistant Rutgers A strain. The class given is in vivo, female). The essentials:
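Synergist plus mobam, Diazinon or GS 13005 dissolved in acetone, applied as 1.0 μl to the thorax of CO2-anaesthetised 3-to-5 day old female Rutgers A (resistant) house flies; doses in μg/fly. Flies held 10 per dish, 3-5 dishes per treatment, with skim milk; mortality scored at 24 h.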

Setting [7] is: Dimetilan 8 mg/kg, oil in place of synergist, 48 hours.

Take `Cc1cc(OC(=O)N(C)C)nn1C(=O)N(C)C` [Dimetilan, 1-(dimethylcarbamoyl)-5-methyl-3-pyrazolyl dimethylcarbamate, reference compound]: the “mortality, insecticide used without synergist” value in data set [1] (insecticide alone at the doses of the CH strain tables, 1440 min) is listed as 10-40%. Besides, the “Lethality, Dimetilan alone (number of mice dead)” value in data set [2] (4.0 mg/kg i.p., 48 hours) is listed as 0; in data set [2] (8.0 mg/kg i.p., 48 hours), 0; in data set [2] (12.0 mg/kg i.p., 48 hours) it was 1; in data set [2] (16.0 mg/kg i.p., 48 hours), 3; in data set [2] (20.0 mg/kg i.p., 48 hours) it was 4; in data set [2] (24.0 mg/kg i.p., 48 hours), 7. The “Lethality, Dimetilan alone (number of mice dead)” value in data set [2] (28.0 mg/kg i.p., 48 hours) is recorded as 8; in data set [2] (32.0 mg/kg i.p., 48 hours), 8. Also, the “number of mice dead, Dimetilan control (0.1 ml oil), 80 mg/kg” value in data set [2] (setting [7]) is reported as 0. In addition, the “number of mice dead, Dimetilan control (0.1 ml oil), 240 mg/kg” value in data set [2] (setting [7]) is on record as 0. In data set [2] (i.p., 48 hours), the “dose level just below that at which Dimetilan alone showed lethality to the mice” value amounted to 8 mg/kg. Moreover, in data set [3] (insecticide alone, common house fly), the “lethality to the common house fly, in words” value is “relatively lethal”. In addition, the “24 hour percent mortality, Dimetilan alone” value in data set [4] (Dimetilan 0.031 μg/fly) was 0%.
For the compound `COc1nn(CSP(=S)(OC)OC)c(=O)s1` [GS 13005, S-((2-methoxy-5-oxo-Δ^2-1,3,4-thiadiazolin-4-yl)methyl) O,O-dimethyl phosphorodithioate, reference compound], in data set [1] (house fly, in vivo, topical or ocular, 24 h), the “mortality, insecticide used without synergist” value is 10-40%. Also, in data set [2] (GS 13005 (71 mg/kg) in 0.1 ml corn oil), the “number of mice dead, control (GS 13005 alone)” value stood at 5. Besides, the “percent kill after 24 hours, GS 13005 alone” value is 0% in data set [4] (GS 13005 0.05, synergist 0 μg/fly); 19% and 16% and 12% in data set [4] (GS 13005 0.10, synergist 0 μg/fly, 1440 min). Moreover, the “24 hour mortality, GS 13005 alone” value in data set [5] (GS 13005 dose 0.08, synergist 0, 1440 min) is 15% and 23% and 10%.
For the compound `C#CCON=Cc1ccc(OC)c(OC)c1` [I-A], the “percent kill after 24 hours, with Diazinon (Table XXVII)” value with houseflies (Diazinon 5 + synergist 10 μg/fly) was 45%. For the same compound, the mortality at 10 µg/fly in the data set with houseflies (Musca domestica, topical, 24 h, Diazinon 0, synergist 10 μg/fly, read-out: percent kill after 24 hours, synergist alone (Table XXVII)) was found to be 0%; in data set [1] (Musca domestica, topical, 24 h, insecticide 0, synergist 10 μg/fly, CH strain, read-out: percent kill after 24 hours, synergist alone) it was 0%. For the same compound, in data set [1] (Dimetilan 2 + synergist 4 μg/fly, CH strain), the “percent kill after 24 hours, with Dimetilan” value came out at 100%. The “percent kill after 24 hours, with GS 13005” value in data set [1] (GS 13005 1 + synergist 2 μg/fly, CH strain) came to 45%. Also, in data set [1] (Pyrethrum 2 + synergist 4 μg/fly, CH strain), the “percent kill after 24 hours, with pyrethrum” value was found to be 15%. Moreover, the “percent kill after 24 hours, synergist alone” value in data set [1] (insecticide 0, synergist 10 μg/fly, CH strain) is 0%. Besides, the “Contact Synergistic Ratio, Pyrolan” value in data set [3] (LC50 pyrolan alone / LC50 with synergist, synergist to insecticide 5:1 by weight) is recorded as 30. In addition, the “Contact Synergistic Ratio, Carbaryl” value in data set [3] (in vivo) stood at 200.
`CNC(=O)Oc1cccc2sccc12` [Mobam, 4-benzo(b) thienyl-N-methylcarbamate, reference compound]: the “percent kill after 24 hours, Mobam alone” value is recorded as 0% in data set [6] (Mobam 0.15, synergist 0 μg/fly); 0% in data set [6] (Mobam 0.30, synergist 0 μg/fly); 7% in data set [6] (Mobam 0.40, synergist 0 μg/fly); 4% in data set [6] (Mobam 0.60, synergist 0 μg/fly); 0% in data set [4] (Mobam 0.05, synergist 0 μg/fly); “zero” in data set [4] (Mobam 0.10, synergist 0 μg/fly). The “percent kill after 24 hours, Mobam alone” value in data set [4] (Mobam 0.10, synergist 0 μg/fly, 1440 min) was 0%; in data set [4] (Mobam 0.20, synergist 0 μg/fly, 1440 min), 6% and 2% and 9%. Moreover, the “percent mortality 24 hours, Mobam alone” value in data set [4] (Mobam 0.13 μg/fly alone) worked out at 0%; in data set [4] (Mobam 0.25 μg/fly alone, 1440 min) it was 27%; in data set [4] (Mobam 0.50 μg/fly alone, 1440 min), 83%; in data set [4] (Mobam 1.0 μg/fly alone, 1440 min), 93%. For the same compound, the “24 hour mortality, Mobam alone” value is listed as 10% in data set [5] (Mobam dose 0.12, synergist 0) and 30% in data set [5] (Mobam dose 0.16, synergist 0).
